Legend:
[1] = log P by HPLC on reversed-phase column (C 18), EEC Directive 79831 Annex V.A8; assay type: physicochemical; conditions: for logP: HPLC reversed-phase C 18, 40° C., 0.1% aqueous formic acid and acetonitrile gradient, several values = mixture of two or more isomers
In short: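 Reversed-phase C18 HPLC at 40° C, 0.1% aqueous formic acid/acetonitrile linear gradient 10% to 90% acetonitrile, per EEC Directive 79831 Annex V.A8. log P obtained from retention time by linear interpolation between unbranched alkan-2-ones (C3-C16) of known log P.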

Alternaria brassicae = assay: Example D: in vivo preventive test on Alternaria brassicae (leaf spot on radish); conditions: 500 ppm of active ingredient, grading 6 days after contamination
Protocol: In Vivo Preventive Test on Alternaria brassicae (Leaf Spot on Radish) […] Radish plants (“Pernod Clair” variety), sown in starter cups on a 50/50 peat soil pozzolana substrate and grown at 17° C., are treated at the cotyledon stage by spraying with the active ingredient prepared as described above. Plants, used as controls, are treated with the mixture of acetone/tween/DMSO/water not containing the active material. After 24 hours, the plants are contaminated by spraying the cotyledons with an aqueous suspension of Alternaria brassicae spores (50 000 spores per mL). The spores are collected from a 15-day-old culture. The contaminated radish plants are incubated at 20° C. and at 100% relative humidity. Grading (% of efficacy) is carried out 6 days after the contamination, in comparison with the control plants.

Puccinia recondita = assay: Example M: in vivo preventive test on Puccinia recondita (brown rust on wheat); conditions: 500 ppm of active ingredient, grading 12 days after contamination
In short: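 Wheat (Scipion) sprayed with compound at 1-leaf stage, grown at 22° C. Inoculated 24 h later with a spore suspension at 100 000 spores per mL. Efficacy (%) graded 12 days after inoculation against solvent-treated controls.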

Botrytis cinerea [2] = assay: Example P: in vivo preventive test on Botrytis cinerea (grey mould), gherkin plants; conditions: 500 ppm of active ingredient, grading 4 to 5 days after contamination
In short: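 Gherkin plants at Z11 cotyledon stage sprayed preventively with active ingredient, then inoculated 24 h later with B. cinerea spores (50 000/mL) in PDB/fructose nutrient solution. Incubation at 17 °C and 90% RH; % efficacy graded 4–5 days post-inoculation against solvent-treated controls.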

Uromyces appendiculatus = assay: Example Q: in vivo preventive test on Uromyces appendiculatus (bean rust); conditions: Uromyces appendiculatus on bean plants, 500 ppm of active ingredient, grading 11 days after contamination
In short: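 Saxa bean plants at 2-leaf stage, grown at 24° C., sprayed preventively with compound; 24 h later inoculated with U. appendiculatus spores (150 000 spores per mL). Percent efficacy graded 11 days after inoculation versus solvent-treated controls.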

Pyricularia oryzae = assay type: in vivo; conditions: Pyricularia oryzae on rice plants, preventive, 500 ppm of active ingredient, grading 6 days after contamination
Sphaerotheca fuliginea [3] = assay: Example A: in vivo preventive test on Sphaerotheca fuliginea (cucumber); conditions: 500 ppm of active ingredient, evaluated 7 days after inoculation
Protocol: In Vivo Preventive Test on Sphaerotheca fuliginea (Cucumber) Solvent: 49 parts by weight of N,N-dimethylformamide Emulsifier: 1 part by weight of alkylarylpolyglycolether To produce a suitable preparation of active compound, 1 part by weight of active compound is mixed with the stated amounts of solvent and emulsifier, and the concentrate is diluted with water to the desired concentration. To test for preventive activity, young plants are sprayed with the preparation of active compound at the stated rate of application. One day after this treatment, the plants are inoculated with an aqueous spore suspension of Sphaerotheca fuliginea. Then the plants are placed in a greenhouse at approximately 23° C. and a relative atmospheric humidity of approximately 70%.

Alternaria solani = assay: Example C: in vivo preventive test on Alternaria solani (tomato); conditions: 500 ppm of active ingredient, evaluated 7 days after inoculation
In short: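 Young tomato plants sprayed preventively with compound formulated in DMF/emulsifier and diluted with water, then inoculated one day later with Alternaria solani spores. Plants were held one day at about 22° C, 100% humidity, then at about 20° C, 96% humidity.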

Pyrenophora teres [4] = assay: Example E: in vivo preventive test on Pyrenophora teres (barley), DMF/emulsifier preparation; conditions: 500 ppm of active ingredient, evaluated 7-9 days after inoculation
In short: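 Young barley plants sprayed preventively with compound formulated in DMF/alkylaryl polyglycol ether emulsifier and diluted in water. One day later inoculated with aqueous Pyrenophora teres spore suspension, then held 48 h at 22 °C and 100% relative humidity.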

Venturia inaequalis = assay: Example G: in vivo preventive test on Venturia inaequalis (apple scab); conditions: 100 ppm of active ingredient, evaluated 10 days after inoculation
Protocol: In Vivo Preventive Test on Venturia inaequalis (Apple Scab) Solvent: 24.5 parts by weight of acetone • 24.5 parts by weight of N,N-dimethylacetamide Emulsifier: 1 part by weight of alkylaryl polyglycol ether To produce a suitable preparation of active compound, 1 part by weight of active compound is mixed with the stated amounts of solvent and emulsifier, and the concentrate is diluted with water to the desired concentration. To test for preventive activity, young plants are sprayed with the preparation of active compound at the stated rate of application. After the spray coating has dried on, the plants are inoculated with an aqueous conidia suspension of the causal agent of apple scab (Venturia inaequalis) and then remain for 1 day in an incubation cabinet at approximately 20° C. and a relative atmospheric humidity of 100%. The plants are then placed in a greenhouse at approximately 21° C. and a relative atmospheric humidity of approximately 90%.

Septoria tritici [5] = assay: Example H: in vivo preventive test on Septoria tritici (wheat), N,N-dimethylacetamide/emulsifier preparation; conditions: 500 ppm of active ingredient, evaluated 21 days after inoculation
Protocol: (§1) In Vivo Preventive Test on Septoria tritici (Wheat) Solvent: 49 parts by weight of N,N-dimethylacetamide Emulsifier: 1 part by weight of alkylaryl polyglycol ether To produce a suitable preparation of active compound, 1 part by weight of active compound or active compound combination is mixed with the stated amounts of solvent and emulsifier, and the concentrate is diluted with water to the desired concentration. To test for preventive activity, young plants are sprayed with the preparation of active compound or active compound combination at the stated rate of application. After the spray coating has been dried, the plants are sprayed with a spore suspension of Septoria tritici. The plants remain for 48 hours in an incubation cabinet at approximately 20° C. and a relative atmospheric humidity of approximately 100% and afterwards for 60 hours at approximately 15° C. in a translucent incubation cabinet at a relative atmospheric humidity of approximately 100%.

[6] = tested on: Blumeria graminis f.sp. hordei; assay: Example J: in vivo preventive test on Blumeria graminis (barley); conditions: 500 ppm of active ingredient, evaluated 7 days after inoculation
Protocol: In Vivo Preventive Test on Blumeria graminis (Barley) Solvent: 49 parts by weight of N,N-dimethylacetamide Emulsifier: 1 part by weight of alkylaryl polyglycol ether To produce a suitable preparation of active compound, 1 part by weight of active compound or active compound combination is mixed with the stated amounts of solvent and emulsifier, and the concentrate is diluted with water to the desired concentration. To test for preventive activity, young plants are sprayed with the preparation of active compound or active compound combination at the stated rate of application. After the spray coating has been dried, the plants are dusted with spores of Blumeria graminis f.sp. hordei.

Puccinia triticina = assay: Example L: in vivo preventive test on Puccinia triticina (wheat); conditions: 500 ppm of active ingredient, evaluated 8 days after inoculation
Protocol: In Vivo Preventive Test on Puccinia triticina (Wheat)
Solvent: 49 parts by weight of N,N-dimethylacetamide
(§2) Emulsifier: 1 part by weight of alkylaryl polyglycol ether
To produce a suitable preparation of active compound, 1 part by weight of active compound or active compound combination is mixed with the stated amounts of solvent and emulsifier, and the concentrate is diluted with water to the desired concentration.
To test for preventive activity, young plants are sprayed with the preparation of active compound or active compound combination at the stated rate of application.
After the spray coating has been dried, the plants are sprayed with a spore suspension of Puccinia triticina.
The plants remain for 48 hours in an incubation cabinet at approximately 20° C. and a relative atmospheric humidity of approximately 100%.
The plants are placed in the greenhouse at a temperature of approximately 20° C. and a relative atmospheric humidity of approximately 80%.
The test is evaluated 8 days after the inoculation. 0% means an efficacy which corresponds to that of the untreated control, while an efficacy of 100% means that no disease is observed.

[7] = tested on: Fusarium nivale (var. majus); assay: Example N: in vivo preventive test on Fusarium nivale (wheat); conditions: 500 ppm of active ingredient, evaluated 5 days after inoculation
Protocol: In Vivo Preventive Test on Fusarium nivale (Wheat) Solvent: 49 parts by weight of N,N-dimethylacetamide Emulsifier: 1 part by weight of alkylaryl polyglycol ether To produce a suitable preparation of active compound, 1 part by weight of active compound or active compound combination is mixed with the stated amounts of solvent and emulsifier, and the concentrate is diluted with water to the desired concentration. To test for preventive activity, young plants are sprayed with the preparation of active compound or active compound combination at the stated rate of application. After the spray coating has been dried, the plants are slightly injured by using a sandblast and afterwards they are sprayed with a conidia suspension of Fusarium nivale (var. majus). The plants are placed in the greenhouse under a translucent incubation cabinet at a temperature of approximately 10° C. and a relative atmospheric humidity of approximately 100%.

Botrytis cinerea [8] = assay: Example O: in vivo protective test on Botrytis cinerea (beans); conditions: 100 ppm of active ingredient, lesion size 2 days after inoculation
Protocol: In Vivo Protective Test on Botrytis cinerea (Beans)
Solvent: 24.5 parts by weight of acetone • 24.5 parts by weight of N,N-dimethylacetamide
as §2
To produce a suitable preparation of active compound, 1 part by weight of active compound is mixed with the stated amounts of solvent and emulsifier, and the concentrate is diluted with water to the desired concentration.
To test for preventive activity, young plants are sprayed with the preparation of active compound. After the spray coating has dried on, 2 small pieces of agar covered with growth of Botrytis cinerea are placed on each leaf. The inoculated plants are placed in a darkened chamber at 20° C. and a relative atmospheric humidity of 100%.
2 days after the inoculation, the size of the lesions on the leaves is evaluated. 0% means an efficacy which corresponds to that of the untreated control, while an efficacy of 100% means that no disease is observed.

Sphaerotheca fuliginea [9] = assay: Example B: in vivo preventive test on Sphaerotheca fuliginea (powdery mildew on cucurbits), gherkin plants; conditions: 500 ppm of active ingredient, grading 12 days after contamination
In short: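 Gherkin plants grown at 24 °C were sprayed with compound at the Z11 cotyledon stage; controls received acetone/tween/DMSO/water without active. 24 h later, cotyledons were inoculated by spraying with Sphaerotheca fuliginea spores (100 000 spores per mL).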

Septoria tritici [10] = assay: Example I: in vivo preventive test on Septoria tritici (wheat), acetone/tween/DMSO preparation; conditions: 500 ppm of active ingredient, grading 24 days after contamination
In short: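 Scipion wheat grown at 22° C, sprayed at 1-leaf stage (10 cm); controls received acetone/tween/DMSO/water without active. Inoculated 24 h later with S. tritici spores (500 000/mL), held 72 h at 18° C, 100% RH, then 21 days at 90% RH. % efficacy vs controls scored 24 days post-inoculation.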

Pyrenophora teres [11] = assay: Example F: in vivo preventive test on Pyrenophora teres (barley), acetone/tween/DMSO preparation; conditions: 500 ppm of active ingredient, barley, grading 14 days after contamination
In short: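 Barley ("Plaisant") grown at 22° C was sprayed at the 1-leaf stage (10 cm) with active ingredient in acetone/tween/DMSO/water, with solvent-only controls. After 24 h, leaves were inoculated with Pyrenophora teres spores (12 000 spores per mL) from 12-day cultures. % efficacy versus controls graded 14 days post-contamination.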

Leptosphaeria nodorum = assay: Example K: in vivo preventive test on Leptosphaeria nodorum (wheat); conditions: 500 ppm of active ingredient, evaluated 8 days after inoculation
Protocol: as §1, with “Leptosphaeria nodorum” for “Septoria tritici”, “Leptosphaeria nodorum.” for “Septoria tritici.”, “approximately” for “approximately 100% and afterwards for 60 hours at approximately 15° C. in a translucent incubation cabinet at a relative atmospheric humidity of approximately”

Row | Structure (SMILES) | logP [1] | Efficacy (Alternaria brassicae) | Efficacy (Puccinia recondita) | Efficacy (Botrytis cinerea [2]) | Efficacy (Uromyces appendiculatus) | Efficacy (Pyricularia oryzae) | Efficacy (Sphaerotheca fuliginea [3]) | Efficacy (Alternaria solani) | Efficacy (Pyrenophora teres [4]) | Efficacy (Venturia inaequalis) | Efficacy (Septoria tritici [5]) | Efficacy [6] | Efficacy (Puccinia triticina) | Efficacy [7] | Efficacy (Botrytis cinerea [8]) | chromatographic logP [1] | Efficacy (Sphaerotheca fuliginea [9]) | Efficacy (Septoria tritici [10]) | Efficacy (Pyrenophora teres [11]) | Efficacy (Leptosphaeria nodorum)
1 | Cn1nc(C(F)F)c(C(=O)NC2CCC3CCCC32)c1F (centres unmarked) [Example 2] | 2.86 | 70% | 98% | 70% | 98% | 71% | – | – | – | – | – | – | – | – | – | – | – | – | – | –
2 | CC1CC(C)(C)C2CCCC(NC(=O)c3c(C(F)F)nn(C)c3F)C12 (centres unmarked) [Example 14] | 4.29 | – | – | – | – | – | 98% | 100% | 100% | 99% | 75% | 90% | 83% | 88% | 100% | – | – | – | – | –
3 | Cc1nn(C)c(F)c1C(=O)N(C1CC1)C(C)C12CC3CC(CC(C3)C1)C2 (centres unmarked) [Example 103, N-[1-(adamantan-1-yl)ethyl]-N-cyclopropyl-5-fluoro-1,3-dimethyl-1H-pyrazole-4-carboxamide] | – | – | – | – | – | – | 96% | 100% | 100% | 100% | 100% | – | – | – | 99% | 4.3 | – | – | – | –
4 | CC(C1CC2CCC1C2)N(C(=S)c1c(C(F)F)nn(C)c1F)C1CC1 (centres unmarked) [Example 97] | 4.47 | – | – | – | – | – | 100% | 95% | 100% | 98% | – | – | – | – | 100% | – | – | – | – | –
5 | Cn1nc(C(F)F)c(C(=O)N(CC2(Cc3ccccc3)CC3CCC2C3)C2CC2)c1Cl (centres unmarked) [Example 68] | 5.06 | – | 75% | – | – | 80% | – | – | – | – | – | – | – | – | – | – | 98% | 71% | – | –
6 | CON(C(=O)c1cn(C)nc1C(F)F)C1CCC2CCCCC21 (centres unmarked) [Example 11] | 3.50 | 100% | 94% | – | 100% | 92% | – | – | – | – | – | – | – | – | – | – | 100% | 71% | 100% | –
7 | CC(N(C(=O)c1cn(C)nc1C(F)F)C1CC1)C12CC3CC(CC(C3)C1)C2 (centres unmarked) [Example 105] | 4.30 | – | – | – | – | – | 100% | 95% | 100% | 100% | 80% | – | – | – | 100% | – | – | – | – | –
8 | CC(C1CC2CCC1C2)N(C(=O)c1cn(C)nc1C(F)F)C1CC1 (centres unmarked) [Example 94] | 3.52 | – | – | – | – | – | 100% | 100% | 100% | 100% | 100% | 89% | – | 100% | 100% | – | – | – | – | 80%
